We go through 14 compounds from US5047534A (Merrell Dow Pharmaceuticals Inc., priority 1990, dated 1991).

Read-outs that look alike come from different tables or passages of the source.

The target of assay [1] is T1, Adenosine A-1 receptor (Rattus norvegicus, UniProt P25099).
T1 sequence (P25099 1-326): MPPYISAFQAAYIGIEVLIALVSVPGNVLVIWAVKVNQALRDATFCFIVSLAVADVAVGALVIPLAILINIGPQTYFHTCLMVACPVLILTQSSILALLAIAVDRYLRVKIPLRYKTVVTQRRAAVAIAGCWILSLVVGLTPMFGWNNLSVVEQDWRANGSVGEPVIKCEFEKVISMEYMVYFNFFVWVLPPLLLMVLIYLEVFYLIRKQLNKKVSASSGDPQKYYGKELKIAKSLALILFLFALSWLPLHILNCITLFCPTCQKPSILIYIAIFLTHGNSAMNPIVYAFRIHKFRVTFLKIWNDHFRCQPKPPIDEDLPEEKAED
In words: Test for affinity for brain adenosine A-1 receptor binding sites ([3H]cyclohexyladenosine displacement, whole brain membranes). To be noted: ratio of A2 Ki to A1 Ki.

The target of assay [2] is T1, Adenosine A-1 receptor.
In a further assay the target is T2, adenosine A-2 receptors (Rattus norvegicus, UniProt P30543).
T2 construct: tissue Charles River (animals); host or cells: brain striatum membranes, young male rats (C-D strain)
T2 sequence (P30543 whole entry): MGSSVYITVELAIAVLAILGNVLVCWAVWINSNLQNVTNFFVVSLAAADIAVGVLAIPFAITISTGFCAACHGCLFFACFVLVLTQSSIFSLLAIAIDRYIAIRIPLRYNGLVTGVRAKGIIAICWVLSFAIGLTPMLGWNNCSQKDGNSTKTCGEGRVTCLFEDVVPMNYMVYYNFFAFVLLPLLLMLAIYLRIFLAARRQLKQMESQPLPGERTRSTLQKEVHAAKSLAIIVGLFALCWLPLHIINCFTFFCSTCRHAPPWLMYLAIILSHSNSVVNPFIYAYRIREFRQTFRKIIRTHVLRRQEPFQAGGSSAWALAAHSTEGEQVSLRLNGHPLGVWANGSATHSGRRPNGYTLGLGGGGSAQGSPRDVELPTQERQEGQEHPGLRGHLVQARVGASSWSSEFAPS
The experiment in a line: Test for affinity for brain adenosine A-2 receptors ([3H]NECA displacement, striatal membranes). Particulars: read-out: A2 Ki. Type of assay: binding. How it is done:
Membranes for ligand binding are isolated from rat brain striatum. The tissue is homogenized in 20 vol icecold 50 mM Tris-HCl buffer (pH 7.7) using a polytron (setting for 6 to 20 seconds). The homogenate is centrifuged at 50,000 x g for 10 minutes at 4° C. The pellet is again homogenized in a polytron in 20 vol of buffer, and centrifuged as before. The pellet is finally resuspended in 40 vol of 50mM Tris-HCl (pH 7.7) per gram of original wet weight of tissue.
Incubations are carried out at 25° C. for 60 minutes. Each tube is filtered through GF/B glass fiber filters using a vacuum. The filters are rinsed two times with 5 ml of the ice-cold buffer. […] The filters are counted by liquid scintillation spectrometry.
Specific binding of [3H]NECA is measured as the excess over blanks run in the presence of 100 μM 2-chloroadenosine. Total membrane-bound radioactivity is about 2.5% of that added to the test tubes. […] Specific binding to membranes is about 50% of the total bound.

Assay [3] addresses T1, Adenosine A-1 receptor. In words: biochemical.
For a further assay, the target named is A-1 receptors. Particulars: read-out: Ki at the A-1 receptors in brain membranes; cited from earlier work.

The term Ki denotes a measure of affinity in units of concentration, obtained from inhibition or displacement. For “3,7-Dihydro-8-(1-phenylethyl-2-phenylethyl)-1,3-dipropyl-1H-purine-2,6-dione”, the A2/A1 at Adenosine A-1 receptor [1] is 37. In addition, the values for the Ki at Adenosine A-1 receptor [2] and on adenosine A-2 receptors were 71 nM and 2600 nM, respectively.
As for `CCCC(Cc1ccccc1)c1nc2c(=O)n(CCC)c(=O)n(CCC)c2[nH]1` (racemic) [3,7-Dihydro-8-[1-(phenylmethyl)butyl]-1,3-dipropyl-1H-purine-2,6-dione], the Ki at adenosine A-2 receptors was determined as 608 nM.
On the same count and under the same terms, the same measure for `CCCn1c(=O)c2[nH]c(C(C)Cc3ccccc3)nc2n(CCC)c1=O` (racemic) [3,7-Dihydro-8-[(±)-1-methyl-2-phenylethyl]-1,3-dipropyl-1H-purine-2,6-dione]: 644 nM.
For the compound `CCCn1c(=O)c2[nH]c(C(CC)c3ccccc3)nc2n(CCC)c1=O` (racemic) [3,7-dihydro-8-[(±)-phenylpropyl]-1,3-dipropyl-1H-purine-2,6-dione], on Adenosine A-1 receptor [1], the A2/A1 turned out to be 216. The Ki at Adenosine A-1 receptor [3] was found to be 5.1 nM; at adenosine A-2 receptors, 1100 nM.
The corresponding values for `CCCn1c(=O)c2[nH]c([C@@H](CC)c3ccccc3)nc2n(CCC)c1=O` [3,7-Dihydro-8-[(S)-phenylpropyl]-1,3-dipropyl-1H-purine-2,6-dione] are 30, 52 nM and 1560 nM.
Regarding `C=CCn1c(=O)c2[nH]c(C(C)c3ccccc3)nc2n(CC=C)c1=O` (stereo not drawn) [3,7-dihydro-8-(1-phenylethyl)-1,3-di-2-propenyl-1H-purine-2,6-dione], at Adenosine A-1 receptor [1], the A2/A1 is 119. Also, the results for the Ki at Adenosine A-1 receptor [3] and at adenosine A-2 receptors were 20 nM and 2400 nM, respectively.
In the case of `CCCn1c(=O)c2nc(C(C)c3ccccc3)[nH]c2n(CCC)c1=O` (stereo not drawn) [3,7-dihydro-8-(1-phenylethyl)-1,3-dipropyl-1H-purine-2,6-dione], the Ki at adenosine A-2 receptors is 1600 nM.
Still for that read-out and setting: the same measure for `CCCn1c(=O)c2[nH]c(C3Cc4ccccc4C3)nc2n(CCC)c1=O` [3,7-dihydro-8-(2-indanyl)-1,3-dipropyl-1H-purine-2,6-dione]: 7100 nM.
Regarding `CCCn1c(=O)c2nc(C(CO)Cc3ccccc3)[nH]c2n(CCC)c1=O` (stereo not drawn) [3,7-dihydro-8-[1-(hydroxymethyl)-2-phenylethyl]-1,3-dipropyl-1H-purine-2,6-dione], the Ki on adenosine A-2 receptors came out at 3900 nM.
On the same count and under the same terms, the same measure for `CCCn1c(=O)c2nc(C(CC)Cc3ccccc3)[nH]c2n(CCC)c1=O` (stereo not drawn) [3,7-dihydro-8-[1-(phenylmethyl)propyl]-1,3-dipropyl-1H-purine-2,6-dione]: 71700 nM; for `CCCn1c(=O)c2[nH]c([C@H](C)Cc3ccccc3)nc2n(CCC)c1=O` [3,7-dihydro-8-[(1R)-1-methyl-2-phenylethyl]-1,3-dipropyl-1H-purine-2,6-dione]: 157 nM; for `CCCn1c(=O)c2nc([C@@H](C)Cc3ccccc3)[nH]c2n(CCC)c1=O` [3,7-dihydro-8-[(1S)-1-methyl-2-phenylethyl]-1,3-dipropyl-1H-purine-2,6-dione]: 848 nM.
In the case of `CCCn1c(=O)c2[nH]c([C@H](CC)c3ccccc3)nc2n(CCC)c1=O` [3,7-dihydro-8-[(R)-phenylpropyl]-1,3-dipropyl-1H-purine-2,6-dione], the A2/A1 on Adenosine A-1 receptor [1] is on record as 404. The Ki at Adenosine A-1 receptor [3] amounted to 1.6 nM; on adenosine A-2 receptors, 647 nM.
As for `CCCn1c(=O)c2[nH]c(-c3ccc(OCC(=O)NCCN)cc3)nc2n(CCC)c1=O` [XAC], the Ki on A-1 receptors was 1.2 ± 0.5 nM.
